One assay concerns Aβ42. Put plainly: Screening for γ-secretase-modulating activity, Method 1: Aβ42 sandwich ELISA on SKNBE2 cell media. The format is cell-based. Conditions: SKNBE2 cells carrying APP 695 wild type. On the procedure: (§1) Screening was carried out using SKNBE2 cells carrying the APP 695—wild type, grown in Dulbecco's Modified Eagle's Medium/Nutrient mixture F-12 (DMEM/NUT-mix F-12) (HAM) provided by Gibco (cat no. 31330-38) containing 5% Serum/Fe supplemented with 1% non-essential amino acids. Cells were grown to near confluency.
(§2) The screening was performed using the assay as described in Citron et al (1997) Nature Medicine 3: 67. Briefly, cells were plated in a 96-well plate at about 10^5 cells/ml one day prior to addition of compounds. Compounds were added to the cells in Ultraculture (Lonza, BE12-725F) supplemented with 1% glutamine (Invitrogen, 25030-024) for 18 hours. The media were assayed by two sandwich ELISAs, for Aβ42 and Aβtotal. Toxicity of the compounds was assayed by WST-1 cell proliferation reagent (Roche, 1 644 807) according to the manufacturer's protocol.
To quantify the amount of Aβ42 in the cell supernatant, commercially available Enzyme-Linked-Immunosorbent-Assay (ELISA) kits were used (Innotest® β-Amyloid(1-42), Innogenetics N.V., Ghent, Belgium). The Aβ42 ELISA was performed essentially according to the manufacturer's protocol. Briefly, the standards (dilutions of synthetic Aβ1-42) were prepared in polypropylene Eppendorf with final concentrations of 8000 down to 3.9 pg/ml (1/2 dilution step). Samples, standards and blanks (100 μl) were added to the anti-Aβ42-coated plate supplied with the kit (the capture antibody selectively recognizes the C-terminal end of the antigen). The plate was allowed to incubate 3 h at 25° C. in order to allow formation of the antibody-amyloid complex. Following this incubation and subsequent wash steps a selective anti-Aβ-antibody conjugate (biotinylated 3D6) was added and incubated for a minimum of 1 hour in order to allow formation of the antibody-Amyloid-antibody-complex. After incubation and appropriate wash steps, a Streptavidine-Peroxidase-Conjugate was added, followed 30 minutes later by an addition of 3,3′,5,5′-tetramethylbenzidine (TMB)/peroxide mixture, resulting in the conversion of the substrate into a coloured product. This reaction was stopped by the addition of sulfuric acid (0.9 N) and the colour intensity was measured by means of photometry with an ELISA-reader with a 450 nm filter.
(§3) To obtain the values reported in Table 3a, the sigmoidal dose response curves were analysed by computerised curve-fitting, with percent of inhibition plotted against compound concentration. A 4-parameter equation (model 205) in XLfit was used to determine the IC50. The top and the bottom of the curve were fixed to 100 and 0, respectively, and the hill slope was fixed to 1. The IC50 represents the concentration of a compound that is required for inhibiting a biological effect by 50% (Here, it is the concentration where Aβ peptide level is reduced by 50%).
(§4) To obtain the values reported in Table 3b, the data were calculated as percentage of the maximum amount of amyloid Beta 42 measured in the absence of the test compound. The sigmoidal dose response curves were analyzed using non-linear regression analysis with percentage of the control plotted against the log concentration of the compound. A 4-parameter equation was used to determine the IC50. The values reported in Table 3b are averaged IC50 values.

A further assay concerns Aβtotal. Put plainly: Screening for γ-secretase-modulating activity, Method 1: Aβtotal sandwich ELISA on SKNBE2 cell media. The format is cell-based. Conditions: SKNBE2 cells carrying APP 695 wild type. On the procedure:
as §1, §2
To quantify the amount of Aβtotal in the cell supernatant, samples and standards were added to a 6E10-coated plate. The plate was allowed to incubate overnight at 4° C. in order to allow formation of the antibody-amyloid complex. Following this incubation and subsequent wash steps a selective anti-Aβ-antibody conjugate (biotinylated 4G8) was added and incubated for a minimum of 1 hour in order to allow formation of the antibody-Amyloid-antibody-complex. After incubation and appropriate wash steps, a Streptavidine-Peroxidase-Conjugate was added, followed 30 minutes later by an addition of Quanta Blu fluorogenic peroxidase substrate according to the manufacturer's instructions (Pierce Corp., Rockford, Ill.).
as §3, §4
A general note: ELISA stands for enzyme-linked immunosorbent assay.

Setting [1] is: Table 3a, 18 hours, XLfit, top/bottom fixed to 100 and 0, hill slope 1.
Where [2] appears, read: Table 3b, non-linear regression of % of control, averaged IC50 values.

Structures are written as SMILES.

Broadly, the IC50 is the point on the concentration scale where inhibition reaches its midpoint. `Cc1ncn(-c2ccc(Nc3cccc4c3nc(-c3ccc(F)cc3)n4C(C)(C)C)cc2)n1` [Compound 77]: the half-maximal inhibitory concentration (IC50) with Aβ42 (setting [1]) is 190 nM; in the assay with Aβ42 (setting [2]), 191 nM; with Aβtotal (setting [1]), more than 3000 nM; in the assay with Aβtotal (setting [2]) it was more than 3000 nM.
Take `Cn1c(-c2ccc(F)cc2)nc2c(Nc3ccc(-n4cncn4)c(F)c3)cccc21` [Compound 65]: the half-inhibitory concentration (IC50) in the assay on Aβ42 (setting [1]) is 89 nM; in the assay with Aβ42 (setting [2]), 81 nM; in the assay on Aβtotal (setting [1]) it was more than 3000 nM; with Aβtotal (setting [2]), more than 3000 nM.
With `COc1cc(Nc2cc(F)cc3c2nc(-c2ccccc2Cl)n3C)ccc1-n1cnc(C)n1` [Compound 128], the results for the IC50 in the assay on Aβ42 (setting [2]) and with Aβtotal (setting [2]) were 11 nM and more than 3000 nM, respectively.
Turning to `COc1cc(Nc2cccc3oc(C4CCN(C(=O)OC(C)(C)C)CC4)nc23)ccc1-n1cnc(C)c1` [Compound 42], the IC50 in the assay on Aβ42 (setting [1]) is 1100 nM; in the assay with Aβ42 (setting [2]), 1100 nM; with Aβtotal (setting [1]) it was more than 3000 nM; in the assay on Aβtotal (setting [2]) it was more than 3000 nM.
For `COc1cc(Nc2cccc3c2nc(-c2ccc(F)cc2)n3Cc2ccccc2)ccc1-n1cnc(C)c1` [Compound 79], the IC50 with Aβ42 (setting [1]) was 24 nM; in the assay with Aβ42 (setting [2]), 23 nM; in the assay with Aβtotal (setting [1]) it was more than 10000 nM; in the assay with Aβtotal (setting [2]), more than 10000 nM.
As to `Cc1ncnn1-c1ccc(Nc2cccc3c2nc(-c2ccc(F)cc2)n3C(C)C)cc1` [Compound 88], the 50% inhibitory concentration (IC50) was 58 nM in the assay on Aβ42 (setting [1]), 72 nM in the assay on Aβ42 (setting [2]), more than 3000 nM with Aβtotal (setting [1]) and more than 3000 nM in the assay on Aβtotal (setting [2]).
Consider `COc1cc(Nc2nccc3c2nc(-c2ccccc2Cl)n3C)ccc1-n1cnc(C)n1` [Compound 145], for which the results for the IC50 with Aβ42 (setting [2]) and with Aβtotal (setting [2]) were 209 nM and more than 3000 nM, respectively.
For the compound `COc1cc(Nc2cccc3c2nc(-c2ccc(F)cc2)n3C)ccc1-n1cncn1` [Compound 64], the 50% inhibitory concentration (IC50) is 48 nM in the assay on Aβ42 (setting [1]), 49 nM with Aβ42 (setting [2]), more than 3000 nM in the assay on Aβtotal (setting [1]) and more than 3000 nM in the assay on Aβtotal (setting [2]).
As to `COc1cc(-c2nc3c(Nc4ccc(-n5cncn5)c(F)c4)cccc3n2C)ccc1Cl` [Compound 83], the IC50 in the assay on Aβ42 (setting [1]) is 47 nM; in the assay with Aβ42 (setting [2]), 45 nM; with Aβtotal (setting [1]) it was more than 3000 nM; in the assay with Aβtotal (setting [2]), more than 3000 nM.
In the case of `COc1cc(Nc2cccc3[nH]c(-c4ccc(F)cc4)nc23)ccc1-n1cnc(C)c1` [Compound 62], the 50% inhibitory concentration (IC50) in the assay with Aβ42 (setting [1]) was 114 nM; in the assay on Aβ42 (setting [2]), 195 nM; with Aβtotal (setting [1]), more than 1000 nM; in the assay on Aβtotal (setting [2]) it was more than 3000 nM.
On the same counts, the results for `COc1cc(Nc2cccc3c2nc(Cc2ccc(F)cc2)n3C)ccc1-n1cnc(C)c1` [Compound 81] are 21 nM, 21 nM, more than 1000 nM and more than 1000 nM.
On the same counts, the results for `Cc1ncn(-c2ccc(Nc3cccc4c3nc(CC(C)C)n4CC(C)C)cc2)n1` [Compound 26] are 517 nM, 708 nM, more than 10000 nM and more than 10000 nM.
In the same order, the values of `CCOc1cc(C)c(-c2nc3c(Nc4ccc(-n5cnc(C)n5)c(OC)c4)cccc3n2C)cc1C(C)C` [Compound 58] are 68 nM, 65 nM, more than 3000 nM and more than 3000 nM.
On to `COc1cc(Nc2nccc3[nH]c(-c4ccc(F)cc4)nc23)ccc1-n1cnc(C)c1` [Compound 90], for which the half-maximal inhibitory concentration (IC50) in the assay with Aβ42 (setting [1]) was 39 nM; with Aβ42 (setting [2]), 39 nM; in the assay with Aβtotal (setting [1]), more than 1000 nM; with Aβtotal (setting [2]), more than 5000 nM.
Turning to `COc1cc(Nc2cccc3c2nc(-c2ccc(F)cc2)n3C)ccc1-n1ccnc1` [Compound 63], the IC50 was 23 nM in the assay on Aβ42 (setting [1]), 22 nM in the assay with Aβ42 (setting [2]), more than 1000 nM in the assay on Aβtotal (setting [1]) and more than 3000 nM in the assay on Aβtotal (setting [2]).
As for `COCCn1c(CC(C)C)nc2c(Nc3ccc(-n4cnc(C)n4)cc3)cccc21` [Compound 27], the IC50 was 1250 nM in the assay with Aβ42 (setting [1]), 1120 nM in the assay with Aβ42 (setting [2]), more than 10000 nM with Aβtotal (setting [1]) and 17400 nM with Aβtotal (setting [2]).

These data come from US8772504B2, “Substituted benzoxazole, benzimidazole, oxazolopyridine and imidazopyridine derivatives as gamma secretase modulators” (Janssen Pharmaceuticals, Inc., priority 2009, dated 2014).
